# Data as given in patent US10213494B2, “Treatment of synucleinopathies” (The Brigham and Women's Hospital, Inc., priority 2007, dated 2019).
# How the values were obtained:
# [1] = tested on: A30P, E46K, A53T, S129D, S129A and DQ/AA variants of α-synuclein in MES23.5 cells; test: Sandwich ELISA of mutant α-synuclein variants in MES23.5 cells co-transfected with CTSD cDNA; format: cell-based, human; conditions: cathepsin D cDNA 5 μg/10 cm dish
# Protocol: Sera from six rabbits were raised and affinity-purified at Open Biosystems, Inc. (openbiosystems.com) against recombinant, full-length human αS. Recombinant αS had been HPLC- and MS-characterized and subjected to amino acid composition and protein concentration analyses. For ELISA, 384-well MaxiSorp plates (Nunc, Inc) were coated with 50 μl/well capturing polyclonal Ab (hSA-2) diluted in coating buffer (NaHCO3 with 0.2% NaN3, pH 9.6). Following washes with PBS/0.05% Tween-20 (PBS-T), plates were blocked for 2 hours at 37° C. in blocking buffer (1.125% fish skin gelatin; PBS-T). After 4 washes, samples were loaded and incubated at 4° C. for 12 hours. Biotinylated Syn-1 mAb (as the assaying Ab) was generated using 200 μg Sulfo-NHS-LC Biotin (Pierce), diluted in blocking buffer and added to the plate for 2 hours at 37° C. Following 4 washes, ExtrAvidin phosphatase (Sigma) diluted in blocking buffer was applied for 1 hr at 37° C. Color development was carried out by using Fast-p-Nitrophenyl Phosphate (Sigma) and monitored kinetically at OD 405 nm every 5 minutes for up to 60 minutes.
# To examine whether Cathepsin D could also reduce the levels of missense mutation-carrying αS proteins, MES23.5 cells were transfected with low amounts (0.5 μg/10 cm dish) of SNCA cDNA encoding either the A30P, E46K or A53T variants of α-synuclein which are linked to familial Parkinson Disease in humans, as well as a S129D and a S129A mutant. Phosphorylation of αS at the Serine 129 residue is known to be a pathological hallmark of αS aggregates in vivo (Anderson J et al., 2006, J Biol Chem, 281:29739-29752). Mutation of a Ser residue to Asp is known in the art to mimic sustained, serine-based phosphorylation. The S129A mutant, a phosphorylation-incompetent mutant of αS, was also included for comparison.
# As shown in the bar graph of FIG. 7, the co-expression of Cathepsin D-encoding CTSD cDNA (5 μg/10 cm dish) with either A30P, E46K, A53T, S129D, or S129A αS caused a similar degree reduction in αS levels for all αS proteins examined, when compared to their co-expression with empty vector DNA. When comparing the changes in α-synuclein steady-state to well-characterized levels of recombinant α-synuclein protein that was loaded in parallel, it was estimated that cathepsin D over-expression (at a cDNA concentration of 5 μg/10 cm dish) led to intracellular α-synuclein levels that were 23.98+/−3.57%, 33.08+/−18.51%, 39.21+/−14.63%, 34.84+/−11.36% and 34.31+/−13.39% of cognate control levels, for A30P, E46K, A53T, S129D, or S129A αS polypeptides, respectively (n=2 (−3) from 2-3 independent experiments).
# Of note, residues D98 and Q99 of αS represent the motif by which αS is recognized by the Lamp2a receptor during chaperone mediated autophagy (CMA); Cuervo et al, 2004, Science, vol 305, pp 1292-1295). To investigate the importance of this motif in the αS-lowering action induced by cathepsin D, MES 23.5 cells were also transfected with a cDNA (0.5 μg/10 cm dish) encoding a mutant αS variant, where the D98 and Q99 residues had both been changed to Alanine (A) by site-directed mutagenesis (i.e., DQ/AA-variant of αS). When comparing the changes in the DQ/AA-αS steady-state to well-characterized levels of recombinant α-synuclein protein that were loaded in parallel, it was estimated that cathepsin D over-expression (5 μg/10 cm dish) led to intracellular DQ/AA αS levels that were 22.14+/−5.32% of the vector control levels, (n=3, from 3 independent experiments; not shown).
# MES-syn cells = test: LDH release assay of cellular integrity; format: cell-based, rodent; conditions: enzyme cDNA 5 μg/10 cm dish, versus control vector transfected cells
# Protocol: To confirm that the effect of Cathepsin D on lowering of αS in MES23.5 cells was specific and was not caused by a general decrease in cellular metabolism and integrity, the MTT and LDH assays were performed on MES-syn cells that had been co-transfected with the highest amount of Cathepsin D-encoding cDNA (5 μg/10 cm dish). Lysis of cells with 0.1% Triton-X® 100 served as a positive control, representing maximal cell death.
# To confirm that the effect of Cathepsin F on lowering of αS was specific and was not caused by a general decrease in cellular integrity, the LDH assay was performed on MES-syn cells that had been co-transfected with Cathepsin F-encoding CTSF cDNA (5 μg/10 cm dish). Lysis of cells with 0.1% Triton-X 100 served as a positive control for cell toxicity, promoting maximal cell death.
substance,measurement,setting,value
cathepsin D: human lysosomal aspartyl protease expressed from CTSD cDNA plasmid under a CMV promoter,"intracellular α-synuclein level, % of cognate control levels",[1]; A30P αS,23.98+/−3.57%
same,"intracellular α-synuclein level, % of cognate control levels",[1]; A53T αS,39.21+/−14.63%
same,"intracellular DQ/AA αS level, % of vector control levels","[1]; DQ/AA αS (D98A/Q99A), n=3",22.14+/−5.32%
same,"intracellular α-synuclein level, % of cognate control levels",[1]; E46K αS,33.08+/−18.51%
same,"intracellular α-synuclein level, % of cognate control levels",[1]; S129A αS,34.31+/−13.39%
same,"intracellular α-synuclein level, % of cognate control levels",[1]; S129D αS,34.84+/−11.36%
same,LDH signal,MES-syn cells,identical to that of control vector transfected cells
